In paper PMC1839085, “Crystal structures of an Extracytoplasmic Solute Receptor from a TRAP transporter in its open and closed forms reveal a helix-swapped dimer requiring a cation for α-keto acid binding” (BMC Structural Biology, 2007):

Molecular target: T1, TakP (Cereibacter sphaeroides, UniProt Q3J1R2)
T1 construct: His6 (C); made in house; host or cells: E. coli BL21
Test: Tryptophan fluorescence quenching titration of ligand binding to TakP
Design: species or system Rhodobacter sphaeroides
Conditions: for Binding to purified proteins from the SmoM family (qualitative): purified proteins from the SmoM (TakP) family, stated as [15] and this study, method not specified
From the text: We overexpressed and purified TakP from Rhodobacter sphaeroides and confirmed its ability to bind a range of α-keto acids. A general feature of ESRs is that substrate binding is accompanied by a diminished fluorescence from some tryptophan residue(s) as a result of the conformational changes induced by the binding. […] This was accompanied by a shift of the emission peak: the difference spectrum between the unliganded and liganded (quenched) protein has its maximum around 345 nm, whereas the bulk fluorescence from the unliganded form peaks at 335 nm. […] There are 10 Trp residues in the TakP sequence. From the structural information describe below, it turned out that one of these Trp residues (Trp 215) is directly interacting with the ligand when present, so that its fluorescence may be strongly quenched as a result. Two others undergo a significant displacement during the open/closed transition, which may also affect their fluorescence properties. Clearly, the observed amplitude of the fluorescence quenching caused by ligand binding (~30%) implies that these sensitive residues have for some reason a larger relative contribution to the fluorescence emission than the other tryptophans of the protein.
Because of the high binding affinity of these, we had to use a sufficiently low protein concentration to obtain an accurate determination of the dissociation constant, Kd. If the protein concentration is below the Kd, allowing the presence of a significant fraction of free substrate during the titration, the Kd can be determined from a fit of the equation:
F/F0=1−ΔF×[PL]=1−ΔF×0.5(Kd+[P0]+[L0]−(Kd+[P0]+[L0])^2−4[P0][L0]) MathType@MTEF@5@5@+=feaafiart1ev1aaatCvAUfKttLearuWrP9MDH5MBPbIqV92AaeXatLxBI9gBaebbnrfifHhDYfgasaacH8akY=wiFfYdH8Gipec8Eeeu0xXdbba9frFj0=OqFfea0dXdd9vqai=hGuQ8kuc9pgc9s8qqaq=dirpe0xb9q8qiLsFr0=vr0=vr0dc8meaabaqaciaacaGaaeqabaqabeGadaaakeaacqWGgbGrcqGGVaWlcqWGgbGrdaWgaaWcbaGaeGimaadabeaakiabg2da9iabigdaXiabgkHiTiabfs5aejabdAeagjabgEna0kabcUfaBjabdcfaqjabdYeamjabc2faDjabg2da9iabigdaXiabgkHiTiabfs5aejabdAeagjabgEna0kabicdaWiabc6caUiabiwda1maabmaabaGaem4saS0aaSbaaSqaaiabdsgaKbqabaGccqGHRaWkcqGGBbWwcqWGqbaudaWgaaWcbaGaeGimaadabeaakiabc2faDjabgUcaRiabcUfaBjabdYeamnaaBaaaleaacqaIWaamaeqaaOGaeiyxa0LaeyOeI0YaaOaaaeaacqGGOaakcqWGlbWsdaWgaaWcbaGaemizaqgabeaakiabgUcaRiabcUfaBjabdcfaqnaaBaaaleaacqaIWaamaeqaaOGaeiyxa0Laey4kaSIaei4waSLaemitaW0aaSbaaSqaaiabicdaWaqabaGccqGGDbqxcqGGPaqkdaahaaWcbeqaaiabikdaYaaakiabgkHiTiabisda0iabcUfaBjabdcfaqnaaBaaaleaacqaIWaamaeqaaOGaeiyxa0Laei4waSLaemitaW0aaSbaaSqaaiabicdaWaqabaGccqGGDbqxaSqabaaakiaawIcacaGLPaaaaaa@7441@
Here, F is the fluorescence amplitude and F0 its value in the absence of ligand. Δ F is the normalized amplitude of the saturated quenching, [PL] is the concentration of liganded protein, [P0] and [L0] are the concentrations of the total protein and ligand, respectively. The protein concentration was determined from its 280 nm absorbance and pertains here to the monomeric unit (see below).
Fluorescence spectroscopy was performed using a Varian Cary Eclipse spectrofluorimeter with an excitation wavelength of 290 nm. The emission spectra were recorded between 300 and 500 nm. Ligand binding was determined from the partial quenching of this fluorescence emission. To gain a more accurate determination of the dissociation constant, the protein concentration was lowered down to 50 nM (in 50 mM Tris/HCl, pH 7) and the amplitude of the fluorescence emission was computed from an integration of the emission over the 315 nm to 360 nm range.

T1 sequence (Q3J1R2 27-365): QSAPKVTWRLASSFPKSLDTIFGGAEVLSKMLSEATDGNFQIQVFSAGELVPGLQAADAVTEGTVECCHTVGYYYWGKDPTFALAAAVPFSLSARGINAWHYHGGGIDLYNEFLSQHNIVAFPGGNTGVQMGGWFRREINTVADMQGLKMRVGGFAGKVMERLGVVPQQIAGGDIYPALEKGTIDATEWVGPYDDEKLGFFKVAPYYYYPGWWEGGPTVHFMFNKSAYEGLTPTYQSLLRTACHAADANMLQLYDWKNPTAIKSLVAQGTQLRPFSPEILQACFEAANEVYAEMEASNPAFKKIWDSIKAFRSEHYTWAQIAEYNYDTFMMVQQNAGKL

SMILES	Kd [nM]	also measured
CC(C)CC(=O)C(=O)O [4-Methyl-2-Oxovalerate]	720 ± 55	
CCC(=O)C(=O)O [Oxobutyrate, oxobutyrate]	43 ± 4	
CCCC(=O)C(=O)O [Oxovalerate, oxovalerate]	18 ± 3	
CC(=O)C(=O)O [Pyruvate, pyruvate]	270 ± 20	
OC[C@@H](O)[C@@H](O)[C@H](O)[C@H](O)CO [mannitol]		Binding to purified proteins from the SmoM family (qualitative): neither bind
OC[C@@H](O)[C@@H](O)[C@H](O)[C@@H](O)CO [sorbitol]		Binding to purified proteins from the SmoM family (qualitative): neither bind
O=C(O)CCC(=O)C(=O)O [α-ketoglutarate]		Binding to TakP (qualitative) (fluorescence quenching titration): No binding
